Results from PMC9764201, “Half-calcified calmodulin promotes basal activity and inactivation of the L-type calcium channel CaV1.2” (The Journal of Biological Chemistry, 2022).

Tested on: CaV1.2
Test: Whole-cell patch clamp of CaV1.2 variants in HEK 293T/17 cells
Type: cell-based, rat
Conditions: interleaved WT, mean±SEM; for Imax Ba2+ (peak current density) / Imax Ba2+ (r300): 10 mM Ba^2+; for Imax Ba2+ (peak current density): 0 mV; for Imax Ca2+ (peak current density) / Imax Ca2+ (r300): 10 mM Ca^2+; for Imax Ca2+ (peak current density): +20 mV; for VDI300: 1-(Ba300/Bamax); for netCDI300: 1-(Ca300/Camax)/(Ba300/Bamax); for Imax Ba2+ (r300) / Imax Ca2+ (r300): fraction of maximal current remaining after 300 ms
Description: HEK 293T/17 cells (ATCC) were maintained as previously described ([15], [53]). For electrophysiology, Lipofectamine 2000 (Invitrogene) or JetPrime (Polyplus Transfection) was used to transiently transfect cells with indicated plasmid DNAs in 35 mm dishes. For biochemistry experiments, transient transfection of HEK 293T/17 cells in […] dishes was achieved using either JetPrime or, as previously described ([15], [53]), the calcium phosphate method. Cells were cotransfected with plasmids encoding the pore-forming α11.2 subunit N-terminally tagged with eCFP ([15], [53]) or mCherry ([54]) plus pGWIH-based plasmids encoding the auxiliary subunits rat β2A ([55]) and rabbit α2δ-1 ([56]) as previously described ([15], [53]). For all transfections, equimolar ratio of 1:1:1 was used for CaV1.2 channel subunits and later further optimized (JetPrime) for CaM (at ratio of 1:1:1:0.5 for α11.2:β2A:α2δ−1:CaM). Rat brain α11.2 (GenBank ID: M67515.1) N-terminally fused to eCFP was utilized as previously described ([15]). The point mutations in plasmids encoding single-residue I1654A, Y1657D (this report), and K1662E exchanges in α11.2 were generated via QuikChange II as previously described ([15], [53]) using N-terminally eCFP ([15], [53]) or mCherry tagged ([54]) rat brain α11.2 plasmid template DNAs. We studied CDI using mCherry-tagged α11.2 subunit coexpressed with the other, untagged CaV1.2 subunits and WT CaM or the calmodulin 34 mutant CaM34 (kindly provided by JP Adelman, ([8])). For some biochemical experiments shown in Fig. S2, YFP-tagged CaM was used ([32]).
Macroscopic Ba^2+- (IBa) and Ca^2+ currents (ICa) of CaV1.2 L-type Ca^2+ channels were obtained in the whole-cell configuration using external bath solution containing (in mM) 134 N-methyl-D-glucamine, 10 BaCl2 (for CDI, 10 CaCl2), 1 MgCl2, 10 Hepes, and 10 glucose with an adjusted pH of 7.4 (Cs-OH) and an osmolarity of 300 to 310 mOsm (sucrose). Intracellular pipette solution contained (in mM) 125 Cs-MeSO3, 5 CsCl, 10 EGTA, 10 Hepes, 1 MgCl2, 4 Mg-ATP, and pH 7.3 (CsOH), mOsm 290 to 300 (sucrose). Cells were clamped at a holding potential of -80 mV and depolarized for 900 ms to a series of activating potentials, from −60 mV to +50 mV (or +80 mV for Ca^2+ currents), in increments of 10 mV at an interval of 0.033 Hz. The series resistance and the cell capacitance were directly taken from the Amplifier (Axopatch 200B, Molecular Device) and compensated to ∼40%. Data were sampled at 10 kHz and lowpass filtered at 2 kHz. Leak subtracted raw data were analyzed with Pclamp10 and GraphPad Prism IX software. All recordings were performed at room temperature (RT).
Table S1. HEK 293T/17 cells were transiently transfected with eCFP-tagged rat CaV1.2 (WT versus I1654A and K1662E or versus Y1657D) plus α2δ1 and β2a and whole cell current recorded (see Fig. 3 for more details).
Panel A. Peak current density from I/V curves of whole-cell recordings. Imax values were determined at +20 mV for Ca2+ and 0 mV for Ba2+.
Panel B. r300 values and quantification of CDI and VDI. Whole-cell currents remaining after 300 ms of depolarization (r300) are given as fraction of maximal currents based on values in A. Net CDI was calculated as the ratiometric value net 1-(Ca300/Camax)/(Ba300/Bamax) and VDI as 1- […]
For each panel: Top: Analysis of interleaved recordings of CaV1.2 WT versus I1654A and K1662E IQ- mutants (one-way ANOVA with a Bonferroni post-hoc test; *p<0.05, **p<0.01 and ***p<0.001 and ****p<0.0001). Bottom: Analysis of interleaved recordings of CaV1.2 WT versus Y1657D IQ-mutant CaV1.2 (unpaired T-Test, *p<0.05 and ****p<0.0001). […]
mean±SEM and numbers in parentheses (n) are independent experiments.
IQ-variant ImaxCa2+(pA/pF) ImaxBa2+(pA/pF) p-value

Question: How did the “Imax Ba2+ (peak current density)” value (I1654A, K1662E) turn out when “CaV1.2: WT rat brain α11.2 with α2δ1 and β2A expressed in HEK 293T/17 cells” was run?
Answer: 46.7±9.1 pA/pF

Question: What about the “Imax Ba2+ (peak current density)” value (Y1657D) of the same substance?
Answer: 21.8±4 pA/pF

Question: And the “Imax Ca2+ (peak current density)” value (I1654A, K1662E)?
Answer: 18.3±4.2 pA/pF

Question: And the “Imax Ca2+ (peak current density)” value (Y1657D)?
Answer: 16.4±2.1 pA/pF

Question: What about the VDI300 (I1654A, K1662E) of the same substance?
Answer: 0.19±0.02

Question: And the VDI300 (Y1657D)?
Answer: 0.17±0.02

Question: What about the netCDI300 (I1654A, K1662E) of the same substance?
Answer: 0.59±0.04

Question: And the netCDI300 (Y1657D)?
Answer: 0.61±0.03

Question: And the “Imax Ba2+ (r300)” value (I1654A, K1662E)?
Answer: 0.81±0.02

Question: What about the “Imax Ba2+ (r300)” value (Y1657D) of the same substance?
Answer: 0.83±0.02

Question: And the “Imax Ca2+ (r300)” value (I1654A, K1662E)?
Answer: 0.33±0.03

Question: What about the “Imax Ca2+ (r300)” value (Y1657D) of the same substance?
Answer: 0.32±0.03
